Assay results taken from paper PMC5626627 (The FEBS journal, 2017).
Positions count from the first letter of the chain named.

What was measured:
[1] = biological target: T1, corn root FNR (ferredoxin:NADP+ reductase) (Zea mays, UniProt B4G043); assay: anaerobic spectrophotometric titration, flavin charge-transfer bands; type: biochemical; settings: 50 mM HEPES-NaOH, pH 7.0, 15 °C
T1 sequence (B4G043 66-381): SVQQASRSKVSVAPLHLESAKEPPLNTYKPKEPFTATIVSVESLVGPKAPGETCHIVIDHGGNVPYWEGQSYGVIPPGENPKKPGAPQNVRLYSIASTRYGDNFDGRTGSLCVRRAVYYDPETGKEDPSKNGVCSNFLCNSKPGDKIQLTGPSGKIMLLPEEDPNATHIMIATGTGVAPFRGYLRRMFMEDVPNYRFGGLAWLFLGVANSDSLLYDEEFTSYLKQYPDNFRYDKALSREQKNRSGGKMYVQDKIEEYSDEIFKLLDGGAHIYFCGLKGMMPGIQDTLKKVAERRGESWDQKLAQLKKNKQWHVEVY

[2] = biological target: T2, corn root FNR (ferredoxin:NADP+ reductase) (Zea mays, UniProt B4G043, Y381S); assay: anaerobic titration, visible absorption of FAD; type: binding
T2 sequence (B4G043 66-381 Y381S): T1 sequence (B4G043 66-381) with Y316S

[3] = biological target: T2, corn root FNR (ferredoxin:NADP+ reductase); assay: titration, visible absorption of FAD; type: binding

SMILES	Kd [3]	other results
NC(=O)C1=CN([C@@H]2O[C@H](COP(=O)(O)OP(=O)(O)OC[C@H]3O[C@@H](n4cnc5c(N)ncnc54)[C@H](OP(=O)(O)O)[C@@H]3O)[C@@H](O)[C@H]2O)C=CC1 [NADPH]		anaerobic spectrophotometric titration, flavin charge-transfer bands [1]: for wild-type the CTC-1 absorption band dominates
NC(=O)c1ccc[n+]([C@@H]2O[C@H](COP(=O)(O)OP(=O)(O)OC[C@H]3O[C@@H](n4cnc5c(N)ncnc54)[C@H](OP(=O)(O)O)[C@@H]3O)[C@@H](O)[C@H]2O)c1 [NADP^+]		Kd [2]: ≤ 0.02 µM
NC(=O)c1ccc[n+]([C@@H]2O[C@H](COP(=O)(O)OP(=O)(O)OC[C@H]3O[C@@H](n4cnc5c(N)ncnc54)[C@H](O)[C@@H]3O)[C@@H](O)[C@H]2O)c1 [NAD^+]	145 ± 5 µM	
NC(=O)c1cccnc1 [nicotinamide]	3000 ± 100 µM	
